Test results reported in ChEMBL document CHEMBL1201862, “PubChem BioAssay data set” (2004).
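Growth conditions: 96-well plates. Treatment: test compound, 48 hours, 5 concentrations. Analysis: linear interpolation between bracketing concentrations; unreached endpoints set to highest concentration. Abbreviation: GI50, concentration required for 50% inhibition of growth.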 Activity calls are given as the source filed them. Cut-off read from the data, not from the text of the source: active = GI50 up to about 1.1 µM and inactive = higher.

Key:
Assay in all cases: NCI tumour cell line growth inhibition, 48 h
786-0 = system: 786-0
A498 = system: A498
A549 = system: A549
ACHN = system: ACHN
CAKI-1 = system: CAKI-1
CCRF-CEM = system: CCRF-CEM
COLO 205 = system: COLO 205
DMS-114 = system: DMS-114
HCC 2998 = system: HCC 2998
HCT-116 = system: HCT-116
HCT-15 = system: HCT-15
HL-60 = system: HL-60
HOP-18 = system: HOP-18
HOP-62 = system: HOP-62
HOP-92 = system: HOP-92
HT-29 = system: HT-29
IGROV-1 = system: IGROV-1
K562 = system: K562
KM-20L2 = system: KM-20L2
KM12 = system: KM12
LOX IMVI = system: LOX IMVI
LXFL 529 = system: LXFL 529
M14 = system: M14
M19-MEL = system: M19-MEL
MOLT-4 = system: MOLT-4
Malme-3M = system: Malme-3M
NCI-H23 = system: NCI-H23
NCI-H460 = system: NCI-H460
OVCAR-5 = system: OVCAR-5
OVCAR-8 = system: OVCAR-8
RXF 631 = system: RXF 631
SF-268 = system: SF-268
SF-295 = system: SF-295
SF-539 = system: SF-539
SK-MEL-28 = system: SK-MEL-28
SK-MEL-2 = system: SK-MEL-2
SK-OV-3 = system: SK-OV-3
SN12C = system: SN12C
SNB-19 = system: SNB-19
SNB-78 = system: SNB-78
SR = system: SR
SW-620 = system: SW-620
TK-10 = system: TK-10
U-251 = system: U-251
UACC-257 = system: UACC-257
UACC-62 = system: UACC-62
UO-31 = system: UO-31
XF498 = system: XF498

Compound: CCOC(=O)Nc1ccc(S(=O)(=O)I)cc1.CCOC(=O)Nc1ccc(S(=O)(=O)I)cc1.CN(C=O)C1=C(N(C)C=O)C(N(C)C=O)=C(N(C)C=O)C(=O)C1=O
- GI50 (786-0): > 100 µM (inactive)
- GI50 (A498): > 100 µM (inactive)
- GI50 (A549): > 100 µM (inactive)
- GI50 (ACHN): > 100 µM (inactive)
- GI50 (CAKI-1): > 100 µM (inactive)
- GI50 (CCRF-CEM): > 100 µM (inactive)
- GI50 (COLO 205): > 100 µM (inactive)
- GI50 (DMS-114): > 100 µM (inactive)
- GI50 (HCC 2998): > 100 µM (inactive)
- GI50 (HCT-116): > 100 µM (inactive)
- GI50 (HCT-15): > 100 µM
- GI50 (HL-60): > 100 µM (inactive)
- GI50 (HOP-18): > 100 µM (inactive)
- GI50 (HOP-62): > 100 µM (inactive)
- GI50 (HOP-92): > 100 µM (inactive)
- GI50 (HT-29): > 100 µM (inactive)
- GI50 (IGROV-1): > 100 µM (inactive)
- GI50 (K562): > 100 µM (inactive)
- GI50 (KM-20L2): > 100 µM (inactive)
- GI50 (KM12): > 100 µM (inactive)
- GI50 (LOX IMVI): > 100 µM (inactive)
- GI50 (LXFL 529): > 100 µM (inactive)
- GI50 (M14): > 100 µM (inactive)
- GI50 (M19-MEL): > 100 µM (inactive)
- GI50 (MOLT-4): > 100 µM (inactive)
- GI50 (Malme-3M): > 100 µM (inactive)
- GI50 (NCI-H23): > 100 µM (inactive)
- GI50 (NCI-H460): > 100 µM (inactive)
- GI50 (OVCAR-5): > 100 µM (inactive)
- GI50 (OVCAR-8): > 100 µM (inactive)
- GI50 (RXF 631): > 100 µM (inactive)
- GI50 (SF-268): > 100 µM (inactive)
- GI50 (SF-295): > 100 µM (inactive)
- GI50 (SF-539): > 100 µM (inactive)
- GI50 (SK-MEL-28): > 100 µM (inactive)
- GI50 (SK-MEL-2): > 100 µM (inactive)
- GI50 (SK-OV-3): > 100 µM (inactive)
- GI50 (SN12C): > 100 µM (inactive)
- GI50 (SNB-19): > 100 µM (inactive)
- GI50 (SNB-78): > 100 µM (inactive)
- GI50 (SR): > 100 µM (inactive)
- GI50 (SW-620): > 100 µM (inactive)
- GI50 (TK-10): > 100 µM (inactive)
- GI50 (U-251): > 100 µM (inactive)
- GI50 (UACC-257): > 100 µM (inactive)
- GI50 (UACC-62): > 100 µM (inactive)
- GI50 (UO-31): > 100 µM (inactive)
- GI50 (XF498): > 100 µM (inactive)
